Reference: patent US11939307B2, “Phenylmethyl-piperazine derivatives and antiviral uses thereof” (INSTITUTE OF MEDICINAL BIOTECHNOLOGY, CHINESE ACADEMY OF …, priority 2019, dated 2024)

test system: HCV; assay: Assay of anti-HCV activity in HCV-infected Huh7.5 cells (intracellular HCV RNA by one-step quantitative RT-PCR); type: cell-based; details: Hepatitis C virus, Huh7.5, 96 h, read-out: inhibitory activities (inhibitory levels of the compounds against HCV replication)
In short: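 Huh7.5 cells were infected with HCV particles while compounds were added at 1 μM, then incubated 96 h at 37 °C, 5% CO2. Intracellular HCV RNA was quantified by one-step qRT-PCR, and inhibition was calculated relative to the viral control.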

| Compound | inhibition at 1 µM |
| --- | --- |
| CN(CCN1CC1)c1ccc(C#N)c(CN2CCN(C(c3ccc(Cl)cc3)c3ccc(Cl)cc3)CC2)c1 [Compound 87, 4-((2-(aziridin-1-yl)ethyl)(methyl)amino)-2-((4-(bis(4-chlorophenyl)methyl)piperazin-1-yl)methyl)benzonitrile] | 50 to 75% |

same assay, conditions: Hepatitis C virus; compound at 1 μM; Huh7.5 cells infected with HCV; 96 hrs; intracellular HCV RNA vs viral control; read-out: inhibitory activities (inhibitory levels of the compounds against HCV replication)

| Compound | inhibition at 1 µM |
| --- | --- |
| CN(C)C1CCN(c2ccc(C#N)c(CN3CCN(C(c4ccc(Cl)cc4)c4ccc(Cl)cc4)CC3)c2)C1 (stereo not drawn) [Compound 85, 2-((4-(bis(4-chlorophenyl)methyl)piperazin-1-yl)methyl)-4-(3-(dimethylamino)pyrrolidin-1-yl)benzonitrile] | > 75% |
| CN(CCN1CCCC1)c1ccc(C#N)c(CN2CCN(C(c3ccc(Cl)cc3)c3ccc(Cl)cc3)CC2)c1 [Compound 86, 2-((4-(bis(4-chlorophenyl)methyl)piperazin-1-yl)methyl)-4-(methyl(2-(pyrrolidin-1-yl)ethyl)amino)benzonitrile] | > 75% |
| CN1CCCN(c2ccc(C#N)c(CN3CCN(C(c4ccccc4)c4ccc(Cl)cc4)CC3)c2)CC1 (stereo not drawn) [Compound 88, 2-((4-((4-chlorophenyl)(phenyl)methyl)piperazin-1-yl)methyl)-4-(4-methyl-1,4-diazepan-1-yl)benzonitrile] | > 75% |
| CN1CCCN(c2ccc(C#N)c(CN3CCN(C(c4ccncc4)c4ccc(Cl)cc4)CC3)c2)CC1 (stereo not drawn) [Compound 89, 2-((4-((4-chlorophenyl)(pyridin-4-yl)methyl)piperazin-1-yl)methyl)-4-(4-methyl-1,4-diazepan-1-yl)benzonitrile] | > 75% |
| CN(C)CCN(C)c1ccc(C#N)c(CN2CCC(C(c3ccc(Cl)cc3)c3ccc(Cl)cc3)CC2)c1 [Compound 90, 2-((4-(bis(4-chlorophenyl)methyl)piperidin-1-yl)methyl)-4-((2-(dimethylamino)ethyl)(methyl)amino)benzonitrile] | > 75% |
| CN1CCCN(c2ccc(C#N)c(CN3CCC(C(c4ccc(F)cc4)c4ccc(F)cc4)CC3)c2)CC1 [Compound 91, 2-((4-(bis(4-fluorophenyl)methyl)piperidin-1-yl)methyl)-4-(4-methyl-1,4-diazepan-1-yl)benzonitrile] | > 75% |
| CN1CCC(N(C)c2ccc(C(F)(F)F)c(CN3CCN(c4ccc(Cl)cc4)CC3)c2)C1 (stereo not drawn) [Compound 92] | > 75% |
| CCN(C)CCN(C)c1ccc(C#N)c(CN2CCN(C(C)c3cnccn3)CC2)c1 (stereo not drawn) [Compound 93, 4-[{2-[ethyl(methyl)amino]ethyl}(methyl)amino)-2-({4-[1-(pyrazin-2-yl)ethyl]piperazin-1-yl}methyl)benzonitrile] | 50 to 75% |
| CCN(CC)CCN(C)c1ccc(C(F)(F)F)c(CN2CCN(C(c3ccc(Cl)c(Cl)c3)c3ccc(Cl)c(Cl)c3)CC2)c1 [Compound 94, N1-(3-[{4-[bis(3,4-dichlorophenyl)methyl]piperazin-1-yl}methyl]-4-(trifluoromethyl)phenyl)-N2,N2-diethyl-N1-methylethan-1,2-diamine] | > 75% |
| Cc1cc(C(c2ccc(Cl)c(C)c2)N2CCN(Cc3cc(N(C)CCN(C)C)ccc3C#N)CC2)ccc1Cl [Compound 95, 2-({4-[bis(4-chloro-3-methylphenyl)methyl]piperazin-1-yl}methyl)-4-{[2-(dimethylamino)ethyl](methyl)amino)benzonitrile] | > 75% |
| CN1CCCN(c2ccc(C(F)(F)F)c(CN3CCN(C(c4ccc(Cl)c(Cl)c4)C4CCCCC4)CC3)c2)CC1 (stereo not drawn) [Compound 96, 1-[3-({4-[cyclohexyl(3,4-dichlorophenyl)methyl]piperazin-1-yl}methyl)-4-(trifluoromethyl)phenyl]-4-methyl-1,4-diazepane] | > 75% |
| CN1CCCN(c2ccc(C#N)c(CN3CCN(C(c4ccc(Cl)cc4)C4CCC4)CC3)c2)CC1 (stereo not drawn) [Compound 97, 2-({4-[(4-chlorophenyl)(cyclobutyl)methyl]piperazin-1-yl}methyl)-4-(4-methyl-1,4-diazepan-1-yl)benzonitrile] | > 75% |
| CN1CCN(c2ccc(C#N)c(CN3CCN(C(c4ccc(C(F)(F)F)cc4)c4cnccn4)CC3)c2)CC1 (stereo not drawn) [Compound 99] | 50 to 75% |
| CN1CCCN(c2ccc(C(F)(F)F)c(CN3CCN(C(c4ccc(Oc5ccccc5)cc4)c4ccccn4)CC3)c2)CC1 (stereo not drawn) [Compound 100, 1-methyl-4-[3-({4-[(4-phenoxyphenyl)(pyridin-2-yl)methyl]piperazin-1-yl}methyl)-4-(trifluoromethyl)phenyl]-1,4-diazepane] | 50 to 75% |
| CCN1CCC(N(C)c2ccc(C(F)(F)F)c(CN3CCN(C(c4ccc(Sc5ccccc5)cc4)c4ccc(Sc5ccccc5)cc4)CC3)c2)C1 (stereo not drawn) [Compound 101, N-{3-([4-{bis[4-(phenylthio)phenyl]methyl}piperazin-1-yl]methyl)-4-(trifluoromethyl)phenyl}-1-ethyl-N-methylpyrrolidin-3-amine] | > 75% |
| CSc1ccc(C(c2ccc(SC)cc2)N2CCN(Cc3cc(N(C)CCN(C)C)ccc3C#N)CC2)cc1 [Compound 102, 2-({4-(bis(4-(methylthio)phenyl]methyl}piperazin-1-yl)methyl)-4-{[2-(dimethylamino)ethyl](methyl)amino}benzonitrile] | > 75% |
| CN(CCN1CCCC1)c1ccc(C(F)(F)F)c(CN2CCN(C(c3ccc(C(F)(F)F)cc3)c3ccc(C(F)(F)F)cc3)CC2)c1 [Compound 103, 3-([4-{bis[4-(trifluoromethyl)phenyl]methyl}piperazin-1-yl]methyl)-N-methyl-N-[2-(pyrrolidin-1-yl)ethyl]-4-(trifluoromethyl)aniline] | > 75% |
| CN(C)CCN(C)c1ccc(C#N)c(CN2CCN(C(c3ccc(C#N)cc3)C3CCCC3)CC2)c1 (stereo not drawn) [Compound 104, 2-({4-[(4-cyanophenyl)(cyclopentyl)methyl]piperazin-1-yl}methyl)-4-{[2-(dimethylamino)ethyl](methyl)amino}benzonitrile] | > 75% |
| CC(c1ccc(C#N)cc1)N1CCN(Cc2cc(N(C)CCN(C)C)ccc2C(F)(F)F)CC1 (stereo not drawn) [Compound 105, 4-{1-(4-[5-{[2-(dimethylamino)ethyl](methyl)amino}-2-(trifluoromethyl)benzyl]piperazin-1-yl)ethyl}benzonitrile] | > 75% |
| N#Cc1ccc(NCCCn2ccnc2)cc1CN1CCN(C(c2ccc(Cl)cc2)c2ccc(Cl)cc2)CC1 [Compound 106, 4-([3-(1H-imidazol-1-yl)propyl]amino)-2-({4-[bis(4-chlorophenyl)methyl]piperazin-1-yl}methyl)benzonitrile] | > 75% |
| CN(C)CCN(C)c1ccc(C(F)(F)F)c(CN2CCN(c3ccc(Cl)c(Cl)c3)CC2)c1 [Compound 107, N^1-(3-((4-(3,4-dichlorophenyl)piperazin-1-yl)methyl)-4-(trifluoromethyl)phenyl)-N^1,N^2,N^2-trimethylethan-1,2-diamine] | > 75% |
| Cc1cc(N2CCN(Cc3cc(N(C)CCN(C)C)ccc3C(F)(F)F)CC2)ccc1Cl [Compound 108, N^1-(3-((4-(4-chloro-3-methylphenyl)piperazin-1-yl)methyl)-4-(trifluoromethyl)phenyl)-N^1,N^2,N^2-trimethylethan-1,2-diamine] | > 75% |
| CN1CCCN(c2ccc(C(F)(F)F)c(CN3CCN(c4ccc(Cl)c(Cl)c4)CC3)c2)CC1 [Compound 109, 1-(3-((4-(3,4-dichlorophenyl)piperazin-1-yl)methyl)-4-(trifluoromethyl)phenyl)-4-methyl-1,4-diazepane] | > 75% |
